# Literature values as cited in patent EP0076676B1, “Process for using endorphins as antitumour agents” (TNI PHARMACEUTICALS, INC., priority 1981, dated 1986).
# Test system: phenylalanyl-t RNA synthetase
# Conditions: observed by Laidow et al, J.B.C. 255 (1980)
substance,measurement,value
beta-endorphin,inhibition of phenylalanyl-t RNA synthetase,inhibit
